From ChEMBL document CHEMBL1201862, “PubChem BioAssay data set” (2004)
Activity calls are given as the source filed them.

Assays:
SUMO E1/E2 = SUMO E1/E2 (Homo sapiens, UniProt P63279+Q9UBE0+Q9UBT2); experiment: SAR analysis of SUMOylation using HTRF in an in-Vitro dose response assay. [Related pubchem assays (depositor defined):AID2006, AID2011, AID2018, AID2069, AID2658]; assay type: functional
[1] = biological target: Voltage-dependent T-type calcium channel subunit alpha-1H (Homo sapiens, UniProt O95180); assay type: functional;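 further: channel activity triggered by adding a high calcium stimulation buffer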
[2] = decrease of insulin promoter-GFP reporter – imaging, high-content screening, mouse beta cells (AID 1628); assay type: functional; conditions: MIN6
[3] = MIN6 cell viability loss – mouse insulinoma, cytotoxicity control, dose response (AID 2122); assay type: functional;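 further: confirmatory high-throughput counterscreen run to flag cytotoxic compounds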
[4] = non-specific 3'UTR reporter inhibition in Clone20-Shn3RL – cell-based, Renilla luciferase, cherry-picked, counter-screen for Shn3 inhibitor project, dose response (AID 624133); assay type: functional
Protein Wnt-3a = Protein Wnt-3a (Mus musculus, UniProt P27467); experiment: antagonism of Wnt3a pathway luciferase reporter – Wnt-LIGHT cells, luminescence, selectivity assay for Gli-SUFU antagonist project, dose response (AID 651570); assay type: functional; conditions: read-out: IC50_Mean;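 further: Wnt-LIGHT reporter cells stimulated with conditioned medium from Wnt3a-producing cells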
[5] = reduction of Shn3 3'UTR-driven luciferase in osteoblasts – cell-based, Clone20 osteoblasts, firefly luciferase, cherry-picked, dose response (AID 624132); assay type: functional;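 further: firefly luciferase luminescence from reporter carrying the Shn3 3'UTR in osteoblasts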
[6] = loss of viability in HepG2 cells – cell-based, CellTiter-Glo, cherry-picked, cytotoxicity control for Shn3 inhibitor project, dose response (AID 624134); assay type: functional
[7] = biological target: Intestinal-type alkaline phosphatase (Mus musculus, UniProt P24822); experiment: PubChem AID 488785; assay type: functional
[8] = biological target: T1, Alkaline phosphatase, tissue-nonspecific isozyme (Homo sapiens, UniProt P05186); experiment: TNAP enzyme inhibition by screening hits, dose response, selectivity assay for mouse IAP inhibitor project, biochemical, human TNAP, uHTS hits (AID 488906); assay type: functional
T1 sequence (P05186 whole entry): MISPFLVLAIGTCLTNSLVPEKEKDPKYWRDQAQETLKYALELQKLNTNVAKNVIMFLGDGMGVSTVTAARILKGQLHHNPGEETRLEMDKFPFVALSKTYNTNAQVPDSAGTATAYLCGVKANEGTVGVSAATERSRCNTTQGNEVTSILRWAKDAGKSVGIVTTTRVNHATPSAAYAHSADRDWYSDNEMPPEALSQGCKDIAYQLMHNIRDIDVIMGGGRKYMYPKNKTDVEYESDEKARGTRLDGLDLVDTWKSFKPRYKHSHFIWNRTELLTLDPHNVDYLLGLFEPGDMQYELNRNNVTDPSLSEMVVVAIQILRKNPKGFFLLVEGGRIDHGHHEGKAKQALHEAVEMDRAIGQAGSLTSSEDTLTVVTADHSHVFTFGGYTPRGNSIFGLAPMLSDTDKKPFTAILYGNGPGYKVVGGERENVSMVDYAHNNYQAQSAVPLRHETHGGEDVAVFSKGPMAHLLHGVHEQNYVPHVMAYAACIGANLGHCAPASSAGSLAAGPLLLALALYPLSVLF

[9] = biological target: Intestinal-type alkaline phosphatase (Homo sapiens, UniProt P09923); experiment: inhibition of human intestinal alkaline phosphatase – biochemical, dose response (AID 488876); assay type: functional
[10] = biological target: Lysine-specific demethylase 4C (Homo sapiens, UniProt Q9H3R0); experiment: inhibition of JMJD2C H3K9me3 demethylation – biochemical, DELFIA europium, cherry-picked samples, dose response (AID 488835); assay type: functional
HEK293 [11] = experiment: cells; conditions: Homo sapiens
Bcl-2-related protein A1 = biological target: T2, Bcl-2-related protein A1 (Mus musculus, UniProt Q07440); assay type: functional;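 further: confirmatory dose–response counterscreen on Bfl-1, used to check hits from a UBC13 polyubiquitin inhibitor campaign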
T2 sequence (Q07440 whole entry): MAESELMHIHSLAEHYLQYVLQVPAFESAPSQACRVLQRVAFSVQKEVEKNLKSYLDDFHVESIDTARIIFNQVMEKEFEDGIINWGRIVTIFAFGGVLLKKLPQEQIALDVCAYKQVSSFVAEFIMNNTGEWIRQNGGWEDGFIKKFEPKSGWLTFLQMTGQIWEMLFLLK

HEK293 [12] = experiment: cells; conditions: Homo sapiens; remark: listed apart in the source
[13] = biological target: T3, Ubiquitin-conjugating enzyme E2 N (Homo sapiens, UniProt P61088); assay type: functional
T3 sequence (P61088 whole entry): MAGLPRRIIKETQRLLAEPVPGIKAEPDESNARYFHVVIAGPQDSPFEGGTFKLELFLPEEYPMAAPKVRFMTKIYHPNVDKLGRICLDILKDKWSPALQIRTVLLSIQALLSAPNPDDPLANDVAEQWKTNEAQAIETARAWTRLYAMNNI

[14] = biological target: T3, Ubiquitin-conjugating enzyme E2 N; assay type: functional; remark: listed apart in the source
[15] = viability of PTEN-deleted HCT116 cells – cell-based, HCT116 PTEN knockout, dose response (AID 1047); assay type: functional;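 further: HCT116 colon tumor cells with PTEN knocked out; cells exposed to compound for 60 hours before readout; potency for loss of cell viability measured by luminescence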
[16] = Luminescence Cell-Based Dose Retest to Confirm Inhibitors of Cancer Stem Cells. [Related pubchem assays (depositor defined):AID2717, AID2721]; assay type: functional; conditions: Homo sapiens
[17] = viability of HCT116 lacking mutant beta-catenin – cell-based, human colon tumor, dose response (AID 1045); assay type: functional;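 further: HCT116 colon tumor cells with beta catenin knocked out; cells exposed to compound for 60 hours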
cells [18] = assay type: functional, cell-based
H9c2 = experiment: cells; assay type: functional, cell-based; conditions: Rattus norvegicus, H9c2, Myocardium;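 further: confirmatory concentration-response retest of ultra-high-throughput screening hits for modulation of myocardial damage; cell death induced by hydrogen peroxide oxidative stress; compound pretreatment for 60 min then peroxide exposure for 2 h; potency is for protecting the cells against peroxide damage rather than for killing them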
[19] = system: Streptococcus sp. 'group A'; experiment: Streptococcus pyogenes SK(-)GAS viability under kanamycin – luminescence, BacTiterGlo, confirmation, counter-screen for streptokinase expression inhibitor project, dose response (AID 1900); assay type: functional, organism-based
cells [20] = assay type: functional, cell-based; remark: listed apart in the source
Streptokinase A = biological target: T4, Streptokinase A (Streptococcus pyogenes serotype M1, UniProt P10520); experiment: viability-normalized secreted streptokinase activity reduction – plasminogen activation absorbance, OD405, dose response (AID 1914); assay type: functional, Streptococcus pyogenes M1 GAS;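 further: secreted streptokinase activity via plasminogen activation per viability signal from cell pellet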
T4 sequence (P10520 whole entry): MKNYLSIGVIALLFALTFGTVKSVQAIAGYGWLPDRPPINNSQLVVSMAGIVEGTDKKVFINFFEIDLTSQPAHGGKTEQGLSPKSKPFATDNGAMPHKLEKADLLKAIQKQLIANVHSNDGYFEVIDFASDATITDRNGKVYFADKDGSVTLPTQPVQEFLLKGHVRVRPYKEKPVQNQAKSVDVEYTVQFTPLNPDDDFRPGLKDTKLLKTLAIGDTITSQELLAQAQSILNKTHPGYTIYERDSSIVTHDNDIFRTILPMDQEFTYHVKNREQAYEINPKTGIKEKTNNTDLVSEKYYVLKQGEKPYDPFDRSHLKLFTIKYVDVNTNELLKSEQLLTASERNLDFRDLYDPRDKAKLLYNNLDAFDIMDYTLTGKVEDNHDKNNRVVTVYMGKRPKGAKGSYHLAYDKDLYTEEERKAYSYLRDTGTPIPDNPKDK

Streptococcus = experiment: GAS UMAA2166 growth inhibition – luminescence, BacTiterGlo, counter-screen for streptokinase expression inhibitor project, dose response (AID 1915); assay type: functional, organism-based;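 further: potency for reduction of bacterial viability or growth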
INS1 = experiment: INS-1E survival protection against cytokine death – cell-based, luminescence, retest, dose response (AID 449756); assay type: functional; conditions: Rattus norvegicus, INS1;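 further: cell death triggered by IL-1 beta plus TNF-alpha plus IFN-gamma mixture; protective hits raise ATP signal compared with cytokine alone wells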

Intestinal-type alkaline phosphatase (Homo sapiens, UniProt P09923), sequence (P09923 whole entry): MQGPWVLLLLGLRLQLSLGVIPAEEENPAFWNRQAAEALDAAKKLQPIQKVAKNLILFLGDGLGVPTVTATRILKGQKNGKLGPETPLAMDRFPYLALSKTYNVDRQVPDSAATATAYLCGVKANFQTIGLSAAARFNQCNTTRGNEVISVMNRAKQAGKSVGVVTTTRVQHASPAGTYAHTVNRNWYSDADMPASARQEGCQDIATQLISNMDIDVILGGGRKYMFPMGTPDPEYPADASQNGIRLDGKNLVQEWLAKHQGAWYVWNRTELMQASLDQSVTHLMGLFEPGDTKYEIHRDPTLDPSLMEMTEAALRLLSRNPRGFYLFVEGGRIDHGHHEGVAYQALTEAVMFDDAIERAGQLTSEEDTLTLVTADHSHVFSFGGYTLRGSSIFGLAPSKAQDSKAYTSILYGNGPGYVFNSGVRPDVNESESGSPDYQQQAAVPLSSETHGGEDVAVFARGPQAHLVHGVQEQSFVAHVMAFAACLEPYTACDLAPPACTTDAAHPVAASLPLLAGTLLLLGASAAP
Protein Wnt-3a, sequence (P27467 whole entry): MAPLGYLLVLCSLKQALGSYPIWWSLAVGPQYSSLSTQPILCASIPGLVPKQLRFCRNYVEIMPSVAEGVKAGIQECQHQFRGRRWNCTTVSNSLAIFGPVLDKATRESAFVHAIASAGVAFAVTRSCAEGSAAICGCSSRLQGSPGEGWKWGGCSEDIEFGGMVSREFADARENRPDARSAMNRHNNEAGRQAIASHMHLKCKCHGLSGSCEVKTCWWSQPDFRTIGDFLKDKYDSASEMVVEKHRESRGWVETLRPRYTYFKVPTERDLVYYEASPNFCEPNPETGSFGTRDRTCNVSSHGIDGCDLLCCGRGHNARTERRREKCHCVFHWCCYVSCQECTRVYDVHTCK
Intestinal-type alkaline phosphatase (Mus musculus, UniProt P24822), sequence (P24822 whole entry): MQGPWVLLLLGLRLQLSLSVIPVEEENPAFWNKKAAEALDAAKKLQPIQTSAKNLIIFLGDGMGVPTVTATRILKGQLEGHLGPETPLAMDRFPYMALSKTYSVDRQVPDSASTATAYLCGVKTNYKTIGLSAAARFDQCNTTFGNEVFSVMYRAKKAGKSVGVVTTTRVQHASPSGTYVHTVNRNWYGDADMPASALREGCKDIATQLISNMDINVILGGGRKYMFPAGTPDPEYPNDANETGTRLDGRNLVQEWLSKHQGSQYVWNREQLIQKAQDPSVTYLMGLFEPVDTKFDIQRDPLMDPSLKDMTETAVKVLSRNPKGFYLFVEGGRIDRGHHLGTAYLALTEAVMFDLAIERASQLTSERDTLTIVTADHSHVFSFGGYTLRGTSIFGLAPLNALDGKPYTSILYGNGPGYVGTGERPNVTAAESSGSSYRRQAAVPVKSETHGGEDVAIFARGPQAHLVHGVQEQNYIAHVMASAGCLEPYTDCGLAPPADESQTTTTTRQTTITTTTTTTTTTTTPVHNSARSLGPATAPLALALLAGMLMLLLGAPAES
Voltage-dependent T-type calcium channel subunit alpha-1H, sequence (O95180 whole entry): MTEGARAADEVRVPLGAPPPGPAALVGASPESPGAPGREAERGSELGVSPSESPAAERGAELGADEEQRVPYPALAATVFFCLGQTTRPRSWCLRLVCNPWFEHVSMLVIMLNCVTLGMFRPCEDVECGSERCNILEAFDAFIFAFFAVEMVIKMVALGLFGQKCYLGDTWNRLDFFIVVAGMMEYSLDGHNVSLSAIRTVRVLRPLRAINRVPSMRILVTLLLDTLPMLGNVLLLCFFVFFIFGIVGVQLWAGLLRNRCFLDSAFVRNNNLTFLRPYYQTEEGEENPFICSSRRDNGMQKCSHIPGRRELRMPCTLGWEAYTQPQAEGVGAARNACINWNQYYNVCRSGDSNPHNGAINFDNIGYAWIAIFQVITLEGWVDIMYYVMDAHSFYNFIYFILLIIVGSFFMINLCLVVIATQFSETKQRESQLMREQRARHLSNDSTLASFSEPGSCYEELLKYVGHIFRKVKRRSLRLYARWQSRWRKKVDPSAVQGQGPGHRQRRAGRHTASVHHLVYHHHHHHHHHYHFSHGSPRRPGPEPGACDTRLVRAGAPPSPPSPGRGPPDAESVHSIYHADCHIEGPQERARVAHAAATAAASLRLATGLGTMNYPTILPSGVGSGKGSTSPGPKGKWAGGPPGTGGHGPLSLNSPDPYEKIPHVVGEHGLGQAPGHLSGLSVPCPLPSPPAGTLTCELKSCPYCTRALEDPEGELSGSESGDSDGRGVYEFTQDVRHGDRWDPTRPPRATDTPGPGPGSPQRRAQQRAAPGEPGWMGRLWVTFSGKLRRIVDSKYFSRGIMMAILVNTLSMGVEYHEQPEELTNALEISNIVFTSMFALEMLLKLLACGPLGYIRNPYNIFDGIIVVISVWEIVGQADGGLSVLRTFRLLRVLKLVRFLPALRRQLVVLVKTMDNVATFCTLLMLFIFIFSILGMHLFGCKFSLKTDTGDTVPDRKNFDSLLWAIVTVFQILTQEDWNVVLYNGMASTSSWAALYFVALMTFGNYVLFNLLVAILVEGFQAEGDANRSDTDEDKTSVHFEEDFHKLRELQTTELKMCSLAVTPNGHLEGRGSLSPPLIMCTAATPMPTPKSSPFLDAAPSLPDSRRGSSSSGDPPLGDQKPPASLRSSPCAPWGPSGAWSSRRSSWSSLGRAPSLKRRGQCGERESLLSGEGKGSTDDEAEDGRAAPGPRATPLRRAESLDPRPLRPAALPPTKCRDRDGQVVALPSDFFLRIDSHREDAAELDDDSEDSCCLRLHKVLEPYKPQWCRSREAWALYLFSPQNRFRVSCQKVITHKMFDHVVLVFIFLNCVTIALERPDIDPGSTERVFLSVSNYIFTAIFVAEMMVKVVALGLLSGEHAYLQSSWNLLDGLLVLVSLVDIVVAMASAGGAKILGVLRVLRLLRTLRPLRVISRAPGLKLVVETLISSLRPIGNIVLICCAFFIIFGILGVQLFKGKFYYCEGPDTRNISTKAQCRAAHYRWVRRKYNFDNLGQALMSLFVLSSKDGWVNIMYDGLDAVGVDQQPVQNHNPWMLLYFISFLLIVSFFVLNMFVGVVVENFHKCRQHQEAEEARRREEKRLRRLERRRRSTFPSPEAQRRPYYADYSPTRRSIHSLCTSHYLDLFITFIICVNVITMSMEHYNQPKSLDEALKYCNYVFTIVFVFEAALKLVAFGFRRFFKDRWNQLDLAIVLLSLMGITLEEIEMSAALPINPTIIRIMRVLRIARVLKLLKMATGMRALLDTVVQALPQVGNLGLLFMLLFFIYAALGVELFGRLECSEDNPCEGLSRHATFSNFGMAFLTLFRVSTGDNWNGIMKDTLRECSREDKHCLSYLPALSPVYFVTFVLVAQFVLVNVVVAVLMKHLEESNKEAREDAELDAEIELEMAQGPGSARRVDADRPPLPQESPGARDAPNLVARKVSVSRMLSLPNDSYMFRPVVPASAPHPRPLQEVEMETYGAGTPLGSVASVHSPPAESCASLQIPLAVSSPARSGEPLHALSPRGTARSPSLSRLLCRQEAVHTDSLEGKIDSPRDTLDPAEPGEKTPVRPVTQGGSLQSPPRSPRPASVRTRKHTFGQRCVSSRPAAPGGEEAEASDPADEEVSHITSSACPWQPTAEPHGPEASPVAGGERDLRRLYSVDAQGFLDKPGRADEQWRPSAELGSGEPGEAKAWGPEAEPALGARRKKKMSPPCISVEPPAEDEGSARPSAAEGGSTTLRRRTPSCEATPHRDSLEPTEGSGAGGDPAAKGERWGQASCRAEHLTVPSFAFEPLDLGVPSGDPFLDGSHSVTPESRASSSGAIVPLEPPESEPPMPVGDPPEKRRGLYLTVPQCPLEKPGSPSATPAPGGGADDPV
SUMO E1/E2, sequence (Q9UBE0 whole entry): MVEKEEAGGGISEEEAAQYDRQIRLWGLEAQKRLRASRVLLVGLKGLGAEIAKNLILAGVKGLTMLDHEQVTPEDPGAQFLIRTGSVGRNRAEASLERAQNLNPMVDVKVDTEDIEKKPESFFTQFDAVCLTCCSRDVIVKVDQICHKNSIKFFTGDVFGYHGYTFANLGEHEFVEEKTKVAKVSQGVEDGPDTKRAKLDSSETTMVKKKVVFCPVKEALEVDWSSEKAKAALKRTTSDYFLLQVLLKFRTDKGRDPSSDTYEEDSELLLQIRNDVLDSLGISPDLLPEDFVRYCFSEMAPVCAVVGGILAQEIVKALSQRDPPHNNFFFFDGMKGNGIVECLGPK
SUMO E1/E2, sequence (Q9UBT2 whole entry): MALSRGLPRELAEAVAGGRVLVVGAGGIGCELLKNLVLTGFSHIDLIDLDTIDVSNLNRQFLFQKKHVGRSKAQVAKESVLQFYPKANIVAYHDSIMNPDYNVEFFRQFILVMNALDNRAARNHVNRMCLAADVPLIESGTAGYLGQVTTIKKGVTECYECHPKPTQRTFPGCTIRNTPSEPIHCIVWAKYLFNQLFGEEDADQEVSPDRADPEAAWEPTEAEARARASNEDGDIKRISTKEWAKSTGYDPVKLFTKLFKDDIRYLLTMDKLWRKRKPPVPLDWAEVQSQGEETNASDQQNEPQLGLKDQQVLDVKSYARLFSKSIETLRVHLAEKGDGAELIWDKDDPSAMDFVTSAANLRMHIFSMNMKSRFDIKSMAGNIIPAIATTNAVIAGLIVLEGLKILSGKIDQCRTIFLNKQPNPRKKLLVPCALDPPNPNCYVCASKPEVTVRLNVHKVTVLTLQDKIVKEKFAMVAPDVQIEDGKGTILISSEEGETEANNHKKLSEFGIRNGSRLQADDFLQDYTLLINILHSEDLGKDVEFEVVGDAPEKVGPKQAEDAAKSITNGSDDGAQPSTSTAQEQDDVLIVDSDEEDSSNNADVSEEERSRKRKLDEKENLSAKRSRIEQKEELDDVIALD
SUMO E1/E2, sequence (P63279 whole entry): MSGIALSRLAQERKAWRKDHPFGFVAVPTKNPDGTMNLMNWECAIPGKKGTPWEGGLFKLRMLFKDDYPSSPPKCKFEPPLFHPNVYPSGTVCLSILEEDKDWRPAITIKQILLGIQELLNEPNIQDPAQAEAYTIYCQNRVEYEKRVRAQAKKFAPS

Structure (SMILES): O=c1c2ccccc2nc(COc2ccccc2)n1N=Cc1cc([N+](=O)[O-])ccc1O
- IC50 (SUMO E1/E2): 43.7 µM (active)

Structure (SMILES): CCCOc1ccccc1N=C(NC(=O)COc1ccc(OC)cc1)Nc1nc(C)cc(C)n1
- EC50 [1]: 8.53 µM (active)
- IC50 [2]: 2.3 µM (active)
- IC50 [3]: 3.16 µM (active)
- AC50 [4]: 6.58 µM (active)
- IC50 (Protein Wnt-3a): 6.39 µM (active)
- AC50 [5]: 3.24 µM (active)
- AC50 [6]: 49.3 µM (active)

Structure (SMILES): Cc1ccc(C)c(NC(=O)CCNS(=O)(=O)c2ccc3[nH]c(=O)oc3c2)c1
- IC50 [7]: 5.21 µM (active)
- IC50 [8]: 22.6 µM (active)
- IC50 [9]: > 100 µM (inactive)

Structure (SMILES): COc1ccc(NC(=O)CNC(=O)c2nn(-c3ccc(OC)c(Cl)c3)c(=O)c3ccccc23)c(OC)c1
- AC50 [10]: 21.5 µM (active)

Structure (SMILES): COc1ccccc1NC(=O)CN1CCC(n2c(C)nc3cc(F)ccc32)CC1
- EC50 (HEK293 [11]): > 59.6 µM (inactive)
- IC50 (Bcl-2-related protein A1): > 20 µM (inactive)
- EC50 (HEK293 [12]): > 59.6 µM (inactive)
- IC50 [13]: 1.78 µM (active)
- IC50 [14]: 1.53 µM (active)

Structure (SMILES): O=C(NCCC1=CCCCC1)c1coc(=O)c(Br)c1
- EC50 (HEK293 [11]): > 59.6 µM (inactive)
- EC50 [15]: 28.9 µM (active)
- EC50 (HEK293 [12]): > 59.6 µM (inactive)
- AC50 [16]: 6.05 µM (active)
- EC50 [17]: 28.6 µM (active)

Structure (SMILES): O=C(Nc1nc(-c2ccccn2)cs1)c1cccc(-n2cnnn2)c1
- EC50 (cells [18]): > 350 µM (not active)
- IC50 (H9c2): > 79 µM (inactive)
- EC50 [19]: 24.7 µM (active)
- IC50 [2]: 2.43 µM (active)
- IC50 [3]: 2.54 µM (active)
- EC50 (cells [20]): > 350 µM (not active)
- EC50 (Streptokinase A): > 150 µM (not active)
- AC50 [4]: 2.43 µM (active)
- EC50 (Streptococcus): > 150 µM (not active)
- AC50 (INS1): 1.56 µM (active)
- AC50 [5]: 2.58 µM (active)
- AC50 [6]: 8.31 µM (active)
